Converted amounts (≈) assume the structure as drawn.
Details: buffer; pH 7.4; 200.0 µM

**Q.** With `O=C(COC(=O)Cc1ccccc1F)Nc1ccc(F)cc1F` as the compound, how does the solubility kinetic read?
**A.** 0.0479 mg/mL (≈ 148 µM)

**Q.** With `CCCCC(=O)Nc1cnc(NC(=O)c2cccs2)cc1C` as the compound, how does the solubility kinetic read?
**A.** > 0.0476 mg/mL

**Q.** For `CN1CCN(S(=O)(=O)c2ccccc2)C(c2ccccc2)C1` (stereo not given), which solubility kinetic is on record?
**A.** 0.0442 mg/mL (≈ 140 µM)

**Q.** Which solubility kinetic does the source give for `O=C(O)C(=O)O.c1ccc2cc(OCCCn3ccnc3)ccc2c1` here?
**A.** > 0.0514 mg/mL

**Q.** Which solubility kinetic does the source give for `CNC(=O)Nc1ccccc1C(=O)Nc1ccccc1` here?
**A.** > 0.0404 mg/mL

**Q.** For `COC(=O)c1ccc(NC(=O)C(=O)c2c[nH]c3ccccc23)cc1`, which solubility kinetic is on record?
**A.** < 0.0003 mg/mL

**Q.** For `COc1ccccc1OCC(=O)Nc1ccc2c(c1)OCCO2`, which solubility kinetic is on record?
**A.** 0.0391 mg/mL (≈ 124 µM)

**Q.** With `O=C(Nc1cccc(Cl)c1)c1cnccn1` as the compound, how does the solubility kinetic read?
**A.** 0.0265 mg/mL (≈ 113 µM)

**Q.** Which solubility kinetic does the source give for `Cc1cnc(C(=O)NCc2ccc(F)cc2)cn1` here?
**A.** > 0.0368 mg/mL

**Q.** For `Cc1ccccc1CNc1ncnc2cc(Cl)ccc12`, which solubility kinetic is on record?
**A.** 0.0005 mg/mL (≈ 1.76 µM)

**Q.** Which solubility kinetic does the source give for `O=C1NC(=S)NC(=O)C1C1CCCCC1` here?
**A.** 0.0301 mg/mL (≈ 133 µM)

**Q.** With `COc1ccc(N(C(=O)C(C)C)S(=O)(=O)c2ccc3ccccc3c2)cc1` as the compound, how does the solubility kinetic read?
**A.** < 0.0008 mg/mL

**Q.** With `O=C(COc1cccnc1[N+](=O)[O-])Nc1cccc2ccccc12` as the compound, how does the solubility kinetic read?
**A.** 0.0227 mg/mL (≈ 70.2 µM)

**Q.** For `Cc1ccc2nc(SC(C)C(=O)N3CCOCC3)[nH]c2c1` (stereo not given), which solubility kinetic is on record?
**A.** 0.0383 mg/mL (≈ 125 µM)

**Q.** For `O=C(O)CCC(=O)NCc1c(Cl)cccc1Sc1ccc(Cl)cc1`, which solubility kinetic is on record?
**A.** 0.0383 mg/mL (≈ 99.7 µM)

**Q.** With `CC(C)OCCCNC(=O)Nc1cccc2ccccc12` as the compound, how does the solubility kinetic read?
**A.** > 0.043 mg/mL

**Q.** With `Cc1ccc(C(=O)NCCCc2ccccc2)c(Cl)c1` as the compound, how does the solubility kinetic read?
**A.** 0.0319 mg/mL (≈ 111 µM)

**Q.** Which solubility kinetic does the source give for `O=C(Cc1ccccc1Cl)N1CCN(c2ccccn2)CC1` here?
**A.** > 0.0474 mg/mL

**Q.** Which solubility kinetic does the source give for `COC(=O)/C=C1\SC(N)=NC1=O` here?
**A.** > 0.0279 mg/mL

**Q.** For `Cc1ccc(CNc2nc(C)cs2)cc1`, which solubility kinetic is on record?
**A.** 0.0253 mg/mL (≈ 116 µM)

**Q.** With `CCc1noc(C)c1C(=O)NCCc1ccc(S(N)(=O)=O)cc1` as the compound, how does the solubility kinetic read?
**A.** > 0.0506 mg/mL

**Q.** With `COCCn1c(C)c(C)c2c(NCCc3ccccc3)ncnc21` as the compound, how does the solubility kinetic read?
**A.** 0.0348 mg/mL (≈ 107 µM)

**Q.** Which solubility kinetic does the source give for `Cc1cc(Cl)c2oc(C(=O)N3CCC(O)(c4ccccc4)CC3)c(C)c2c1` here?
**A.** 0.0022 mg/mL (≈ 5.73 µM)

**Q.** With `Cc1nc(SCCO)c([N+](=O)[O-])[nH]1` as the compound, how does the solubility kinetic read?
**A.** > 0.0305 mg/mL

**Q.** With `CC(NC1=NCCS1)c1ccccc1` (stereo not given) as the compound, how does the solubility kinetic read?
**A.** 0.0304 mg/mL (≈ 147 µM)

**Q.** For `CCCCC1C2C(=O)N(c3ccccc3)C(=O)C2ON1c1ccccc1` (stereo not given), which solubility kinetic is on record?
**A.** 0.0491 mg/mL (≈ 140 µM)

**Q.** Which solubility kinetic does the source give for `COc1ccc(CNC(=O)c2ccc3ccccc3n2)cc1` here?
**A.** 0.0184 mg/mL (≈ 62.9 µM)

**Q.** With `C=CCNC(=S)N1CCN(S(=O)(=O)c2ccc(C)cc2)CC1` as the compound, how does the solubility kinetic read?
**A.** > 0.0509 mg/mL

**Q.** Which solubility kinetic does the source give for `N#Cc1ccc(OS(=O)(=O)c2ccc(-c3ccon3)s2)cc1` here?
**A.** 0.0118 mg/mL (≈ 35.5 µM)

**Q.** For `Cc1cc(OC(=O)N(C)C)nc(-c2ccc(C)c(Cl)c2)n1`, which solubility kinetic is on record?
**A.** 0.0225 mg/mL (≈ 73.6 µM)

**Q.** With `Cc1nc2ccccc2c2c(N)c3ccccc3n12` as the compound, how does the solubility kinetic read?
**A.** 0.0164 mg/mL (≈ 66.3 µM)

**Q.** For `CCC(C)NCCCOc1ccc(C)cc1OC` (stereo not given), which solubility kinetic is on record?
**A.** 0.0351 mg/mL (≈ 140 µM)

**Q.** Which solubility kinetic does the source give for `COc1ccc(NC(=O)Nc2c[nH]c(=O)[nH]c2=O)cc1` here?
**A.** 0.01 mg/mL (≈ 36.2 µM)

**Q.** For `OC1CCCN(CC(O)c2ccccc2)C1` (stereo not given), which solubility kinetic is on record?
**A.** 0.025 mg/mL (≈ 113 µM)

**Q.** For `COC(=O)c1c(C)oc(C)c1S(=O)(=O)NCc1ccco1`, which solubility kinetic is on record?
**A.** > 0.047 mg/mL

**Q.** Which solubility kinetic does the source give for `O=C(Nc1ccccc1)Nc1nc(-c2ccccc2)cs1` here?
**A.** < 0.0002 mg/mL

**Q.** With `Cn1ccsc1=NC(=O)c1ccc(=O)[nH]c1` as the compound, how does the solubility kinetic read?
**A.** 0.0306 mg/mL (≈ 130 µM)

**Q.** For `Cc1cccn2c(=O)c3cc(C(=O)NC4CCCCC4)c(=N)n(CCN4CCOCC4)c3nc12`, which solubility kinetic is on record?
**A.** 0.0522 mg/mL (≈ 112 µM)

**Q.** With `O=C(Nc1ccc(Br)cc1)c1cccnc1N1CCOCC1` as the compound, how does the solubility kinetic read?
**A.** > 0.0543 mg/mL

**Q.** With `O=C(COC(=O)Cc1cccs1)Nc1cc(S(=O)(=O)N2CCOCC2)ccc1Cl` as the compound, how does the solubility kinetic read?
**A.** 0.0565 mg/mL (≈ 123 µM)

**Q.** With `O=C(COC(=O)[C@@H]1CC(O)CN1S(=O)(=O)c1ccc(Cl)c(Cl)c1)NC(=O)NCc1ccccc1` (stereo not given in full) as the compound, how does the solubility kinetic read?
**A.** 0.0667 mg/mL (≈ 126 µM)

**Q.** For `CC(C#N)OC(=O)c1cccnc1SCC(=O)Nc1ccc2c(c1)OCO2` (stereo not given), which solubility kinetic is on record?
**A.** 0.0208 mg/mL (≈ 54 µM)

**Q.** Which solubility kinetic does the source give for `COc1ccc(CNc2nc(Cl)c(C#N)s2)cc1` here?
**A.** 0.0011 mg/mL (≈ 3.93 µM)

**Q.** For `CCOC(=O)C1=C(O)CSC1=Nc1ccc(C)cc1`, which solubility kinetic is on record?
**A.** > 0.0416 mg/mL

**Q.** For `CCOc1ccc2c(c1)nc(C)n2C`, which solubility kinetic is on record?
**A.** > 0.0285 mg/mL

**Q.** With `Cc1cc(=O)[nH]c(SCC(=O)N2C(C)CCCC2C)n1` (stereo not given) as the compound, how does the solubility kinetic read?
**A.** 0.0383 mg/mL (≈ 130 µM)

**Q.** Which solubility kinetic does the source give for `CCOC(=O)c1ccccc1NC(=O)C1CCCO1` (stereo not given) here?
**A.** > 0.0395 mg/mL

**Q.** Which solubility kinetic does the source give for `COc1cccc(NC(=O)C(=O)NCCc2ccc(F)cc2)c1` here?
**A.** < 0.0003 mg/mL

**Q.** For `CC(C)(C)Nc1nc2ccc([N+](=O)[O-])cc2o1`, which solubility kinetic is on record?
**A.** 0.0319 mg/mL (≈ 136 µM)

**Q.** For `O=C1CSC(c2cccnc2)N1c1ccccc1` (stereo not given), which solubility kinetic is on record?
**A.** > 0.0384 mg/mL

**Q.** For `CCCC1(c2ccccc2)NC(=O)N(CC(=O)Nc2ccc3c(c2)OCCO3)C1=O` (stereo not given), which solubility kinetic is on record?
**A.** 0.036 mg/mL (≈ 87.9 µM)

**Q.** With `Nc1ccc(S(=O)(=O)Nc2ccc(C(=O)c3ccccc3)cc2)cc1` as the compound, how does the solubility kinetic read?
**A.** 0.0094 mg/mL (≈ 26.7 µM)

**Q.** With `COc1ccc(-n2cc(-c3ccccc3)c3c(=S)nc[nH]c32)cc1` as the compound, how does the solubility kinetic read?
**A.** 0.0006 mg/mL (≈ 1.8 µM)

**Q.** With `Oc1ccccc1C(=S)N1CCN(c2cccc(Cl)c2)CC1` as the compound, how does the solubility kinetic read?
**A.** 0.02 mg/mL (≈ 60.1 µM)

**Q.** For `CC1(C)CC(=O)C2=C(C1)OC(N)=C(C#N)C2c1ccoc1` (stereo not given), which solubility kinetic is on record?
**A.** > 0.0426 mg/mL

**Q.** With `NC(=O)c1[nH]cnc1N` as the compound, how does the solubility kinetic read?
**A.** > 0.0189 mg/mL

**Q.** With `CC(=O)c1sc2nc(CSc3nncn3C)[nH]c(=O)c2c1C` as the compound, how does the solubility kinetic read?
**A.** > 0.0503 mg/mL

**Q.** Which solubility kinetic does the source give for `CC(=O)c1cc(CN2CCN(CC=C(C)C)C(CCO)C2)cs1` (stereo not given) here?
**A.** > 0.0505 mg/mL

**Q.** Which solubility kinetic does the source give for `COc1ccc(C(=O)N2CCC(C(=O)NC3CC3)CC2)cc1` here?
**A.** > 0.0454 mg/mL

**Q.** With `NC(=O)/C(=C/c1cccnc1)NC(=O)c1ccccc1` as the compound, how does the solubility kinetic read?
**A.** > 0.0401 mg/mL
